Reference: PubChem BioAssay AID747 (Structural Genomics Consortium, 2007)

target: Sulfotransferase 1E1 (Homo sapiens) (UniProt P49888); assay: SULT1E1 thermal stabilisation by ligands, biophysical, StarGazer light scattering, human (AID 747); conditions: purified SULT1E1, StarGazer light scattering thermal shift; at 1 mM; stronger effect = higher value
Sequence (P49888 whole entry, looked up): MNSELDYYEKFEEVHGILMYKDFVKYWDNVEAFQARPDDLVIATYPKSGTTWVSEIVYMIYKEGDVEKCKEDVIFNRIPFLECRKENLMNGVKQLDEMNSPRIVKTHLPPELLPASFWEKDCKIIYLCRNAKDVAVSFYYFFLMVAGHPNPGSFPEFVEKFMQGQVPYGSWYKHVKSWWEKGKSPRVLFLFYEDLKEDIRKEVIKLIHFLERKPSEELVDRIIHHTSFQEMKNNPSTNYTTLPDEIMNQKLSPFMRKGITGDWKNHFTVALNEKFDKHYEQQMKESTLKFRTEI

In order of falling Tagg shift:
1. Cc1ncc(COP(=O)(O)O)c(C=O)c1O  3.95 °C
2. NC(Cc1cc(I)c(Oc2ccc(O)c(I)c2)c(I)c1)C(=O)O (stereo unspecified)  2.6 °C
3. Cc1cccc(Nc2ccccc2C(=O)O)c1C  2.35 °C
4. Oc1ccc(/C=C/c2cc(O)cc(O)c2)cc1  2.25 °C
5. O=c1c(O)c(-c2ccc(O)c(O)c2)oc2cc(O)cc(O)c12  1.95 °C
6. C[C@]12CC[C@@H]3c4cc(O)c(O)cc4CC[C@H]3[C@@H]1CC[C@@H]2O  1.55 °C
7. O=[N+]([O-])c1cc(Cl)c(O)c(Cl)c1  1.4 °C
8. C[C@H]1CCC[C@H](O)CCC/C=C/c2cc(O)cc(O)c2C(=O)O1  1.3 °C
9. COC(=O)CCC(C)C1CCC2C3CCC4CC(O)CCC4(C)C3CCC12C (stereo unspecified)  1.2 °C
10. C[C@]12CC[C@@H]3c4ccc(O)cc4CC[C@H]3[C@@H]1CCC2=O  1.1 °C
11. C[C@]12CC[C@H](OS(=O)(=O)O)CC1=CC[C@@H]1[C@@H]2CC[C@]2(C)C(=O)CC[C@@H]12  1.1 °C
12. Oc1cccc2ccccc12  0 °C
13. NC[C@H](O)c1ccc(O)c(O)c1  0 °C
14. O=C(O)c1ccccc1O  0 °C
15. NCCc1ccc(O)c(O)c1  0 °C
16. Nc1ccc(O)cc1  0 °C
17. Cc1ccc(O)cc1  0 °C
18. CCCc1ccccc1O  0 °C
19. CCc1ccccc1O  0 °C
20. COc1cc(C=O)ccc1O  0 °C
21. CNCC(O)c1ccc(O)c(O)c1 (stereo unspecified)  0 °C
22. CN1CCc2cccc3c2C1Cc1ccc(O)c(O)c1-3 (stereo unspecified)  0 °C
23. Oc1ccc2ccccc2c1  0 °C
24. CCC(C)c1ccccc1O (stereo unspecified)  0 °C
25. CC(C)NCC(O)c1ccc(O)c(O)c1 (stereo unspecified)  0 °C
26. Oc1c(Cl)c(Cl)c(Cl)c(Cl)c1Cl  0 °C
